Here are results for three compounds from patent US11014890B2, “Forms of (R)-N-(4-chlorophenyl)-2-(cis-4-(6-fluoroquinolin-4-yl)cyclohexyl)propanamide” (SHENZHEN RENTAI PHARMATECH LTD, priority 2018, dated 2021).

Structures are written as SMILES.

Common to all, as to assay type: physicochemical
Series [1] can be described thus: water adsorption test (DVS). To be noted: 25° C., humidity 0-90, 10% per step, weight change less than 0.002% in each step of 10 minutes; FIGS. 17, 18 and 30. The procedure: DVS Model: SMS, U.K, DVS intrinsic Method: 25° C., 10% humidity per step, the judgment standard is less than 0.002% for 10 min The products prepared in Embodiment 1 and Embodiment 6, and the amorphous active pharmaceutical ingredient were respectively subjected to experimental tests for light stability, high-temperature stability, accelerated stability, high-humidity stability, and water adsorption. (5) The test products were respectively subjected to the water adsorption test, the experimental conditions were as follows: 25° C., humidity 0-90, 10% per step, and the weight change was less than 0.002% in each step of 10 minutes.

Series [2] in a line: high-humidity stability test (XRPD comparison). To be noted: 25° C. and humidity of 92.5% RH; XRPD FIGS. 32, 33 and 34. Here is the method: (§1) X-Ray Powder Diffractometer (XRPD)
(§2) Model: Bruker, Germany, BRUKER D8 DISCOVER
(§3) Method: Cu target Ka, voltage 40 KV, current 40 mA, test angle 3-45°, step size 0.02, exposure time 0.2 S, light pipe slit width 1 mm, detector slit width 2.7 mm.
(§4) The products prepared in Embodiment 1 and Embodiment 6, and the amorphous active pharmaceutical ingredient were respectively subjected to experimental tests for light stability, high-temperature stability, accelerated stability, high-humidity stability, and water adsorption.

Series [3] in a line: accelerated stability test (XRPD comparison). To be noted: 40° C. and humidity of 75% RH; XRPD FIGS. 15, 16 and 29. The procedure: as §1, §2, §3
(§5) Model: DHG-9011A (Shanghai Jinghong Experimental Equipment Co., Ltd.) Programmable drug stability constant temperature and humidity tester
Model: CMA-100C (Shanghai Puhan Precision Equipment Co., Ltd.)
as §4

The nature of series [4]: high-temperature stability test (XRPD comparison). To be noted: 60° C., 5 d and 10 d; XRPD FIGS. 13, 14 and 28. The procedure: as §1, §2, §3
Electrothermal Constant-Temperature Dry Box
as §5, §4
(2) The test products were respectively placed under 60° C. and tested for 5 d and 10 d stability, and the results are shown in FIGS. 13, 14 and 28.

Series [5] in a line: light stability test (XRPD comparison). To be noted: 25° C. and 4500 lux of light, 5 d and 10 d; XRPD FIGS. 11, 12 and 27. Here is the method: as §1, §2, §3
Model: Shanghai Yiheng Scientific Instrument Co., Ltd., MGC-100
as §4
(1) The test products were respectively placed under 25° C. and 4500 lux of light and tested for 5 d and 10 d stability, and the results are shown in FIGS. 11, 12 and 27.

`C[C@@H](C(=O)Nc1ccc(Cl)cc1)[C@H]1CC[C@@H](c2ccnc3ccc(F)cc32)CC1` [Form B, (R)—N-(4-chlorophenyl)-2-(cis-4-(6-fluoroquinolin-4-yl)cyclohexyl)propanamide]: in series [1], the “water adsorption (hygroscopic curve, DVS)” value (shortened to “water adsorption”) is “do not adsorb water”. Moreover, the high-humidity stability entry in series [2] is on record as “good stability”. Moreover, the accelerated stability result in series [3] was “good stability”. Further, in series [4], the high-temperature stability result is recorded as “good stability”. The light stability result in series [5] is given as “good stability”.

As to `C[C@@H](C(=O)Nc1ccc(Cl)cc1)[C@H]1CC[C@@H](c2ccnc3ccc(F)cc32)CC1` [Form C, (R)—N-(4-chlorophenyl)-2-(cis-4-(6-fluoroquinolin-4-yl)cyclohexyl)propanamide], the “water adsorption” value in series [1] is recorded as “do not adsorb water”. For the same compound, the high-humidity stability entry in series [2] is recorded as “good stability”. Further, in series [3], the accelerated stability entry is reported as “good stability”. The high-temperature stability entry in series [4] is “good stability”. The light stability entry in series [5] is on record as “good stability”.

As for `C[C@@H](C(=O)Nc1ccc(Cl)cc1)[C@H]1CC[C@@H](c2ccnc3ccc(F)cc32)CC1` [amorphous active pharmaceutical ingredient] [(R)—N-(4-chlorophenyl)-2-(cis-4-(6-fluoroquinolin-4-yl)cyclohexyl)propanamide, reference compound], the “water adsorption” value in series [1] is reported as “large hygroscopicity”. Besides, the high-humidity stability result in series [2] is “good stability”. The accelerated stability entry in series [3] is “good stability”. The high-temperature stability entry in series [4] is “good stability”. Besides, the light stability entry in series [5] was “good stability”.
